Tests used:
γ-H2AX [1] = assay: γ-H2AX by Western Blot; assay type: cell-based; conditions: NCI-H1703
γ-H2AX [2] = assay: γ-H2AX positive cells by flow cytometry; assay type: cell-based; conditions: NCI-H1703
Excerpt: To confirm the above observations, percentage of γ-H2AX positive cells was quantified using flow cytometry.

IGFR = IGFR (Homo sapiens, UniProt P08069); conditions: cellular; read-out: IC50, cellular IGFR ligand-induced phosphorylation; cited from earlier work
[3] = tested on: FGFR1-amplified lung cancer cells; conditions: in combination with FGFR inhibitors; cited from earlier work
cleaved caspase-3 [4] = assay: cleaved-caspase-3 positive cells by flow cytometry; assay type: cell-based; conditions: NCI-H1703; 24 h and 48 h; onvansertib 50 nM, AZD4547 2.5 μM
cleaved caspase-3 [5] = assay: cleaved caspase-3 by Western Blot; assay type: cell-based; conditions: NCI-H1703; 24 h and 48 h; onvansertib 50 nM, AZD4547 2.5 μM
Description: In addition, the amounts of cleaved caspase-3 and cleaved PARP were determined at 6 h, 24 h and 48 h after different treatments using Western Blot.

[6] = tested on: phosphorylated histone H3 (pHH3); assay: pHH3 positive cells by flow cytometry; assay type: cell-based; conditions: NCI-H1703
Description: (§1) The percentage of pHH3 positive cells was also determined using flow cytometry at 24 h and 48 h.

PLK1 = PLK1 (Homo sapiens, UniProt P53350); conditions: among a panel of 296 kinases, including other PLK members; cited from earlier work
Chain of PLK1 (P53350 whole entry): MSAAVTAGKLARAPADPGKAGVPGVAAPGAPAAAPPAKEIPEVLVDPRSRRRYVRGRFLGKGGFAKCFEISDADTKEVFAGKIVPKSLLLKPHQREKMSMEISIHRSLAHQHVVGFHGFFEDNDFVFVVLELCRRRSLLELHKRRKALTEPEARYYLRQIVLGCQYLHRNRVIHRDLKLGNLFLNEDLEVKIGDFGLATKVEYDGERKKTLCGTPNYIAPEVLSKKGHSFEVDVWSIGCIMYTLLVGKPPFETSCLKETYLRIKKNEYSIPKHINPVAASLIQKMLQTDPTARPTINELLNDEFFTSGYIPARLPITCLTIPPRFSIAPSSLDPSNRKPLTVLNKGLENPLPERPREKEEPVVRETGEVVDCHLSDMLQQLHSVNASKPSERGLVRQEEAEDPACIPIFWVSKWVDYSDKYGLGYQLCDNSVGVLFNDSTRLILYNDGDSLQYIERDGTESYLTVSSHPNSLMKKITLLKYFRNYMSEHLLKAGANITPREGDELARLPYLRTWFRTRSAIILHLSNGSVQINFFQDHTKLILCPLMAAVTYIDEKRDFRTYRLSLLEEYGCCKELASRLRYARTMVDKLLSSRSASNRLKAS

NPM at Threonine 199 = assay: phosphorylation of NPM at Threonine 199; assay type: cell-based; conditions: NCI-H1703; 6 hrs, 24 hrs and 48 hrs
[7] = patients, cited from earlier work
NCI-H1703 cells [8] = assay: colony forming capacity, crystal violet staining; assay type: cell-based; conditions: onvansertib 50 nM, AZD4547 250 nM
Excerpt: The culture media was changed again after 3 days. After culturing for another 6 days, the NCI-H1703 cells were stained with crystal violet. The workflow of determining colony forming capacity is illustrated in FIG. 21. […] The colonies formed by NCI-H1703 cells shown in FIG. 22 were quantified as indicated by percentage relative intensity (FIG. 23).

NCI-H1703 cells [9] = assay: cell cycle analysis; assay type: cell-based; conditions: 48 hrs, onvansertib 50 nM, AZD4547 2.5 μM
Description: as §1

AML cell lines = conditions: cited from earlier work
[10] = time point not given, compared to cells receiving no treatment
[11] = time point not given, compared to DMSO
[12] = 24 h and 48 h, onvansertib 50 nM, AZD4547 2.5 μM

Chain of IGFR (P08069 31-1367): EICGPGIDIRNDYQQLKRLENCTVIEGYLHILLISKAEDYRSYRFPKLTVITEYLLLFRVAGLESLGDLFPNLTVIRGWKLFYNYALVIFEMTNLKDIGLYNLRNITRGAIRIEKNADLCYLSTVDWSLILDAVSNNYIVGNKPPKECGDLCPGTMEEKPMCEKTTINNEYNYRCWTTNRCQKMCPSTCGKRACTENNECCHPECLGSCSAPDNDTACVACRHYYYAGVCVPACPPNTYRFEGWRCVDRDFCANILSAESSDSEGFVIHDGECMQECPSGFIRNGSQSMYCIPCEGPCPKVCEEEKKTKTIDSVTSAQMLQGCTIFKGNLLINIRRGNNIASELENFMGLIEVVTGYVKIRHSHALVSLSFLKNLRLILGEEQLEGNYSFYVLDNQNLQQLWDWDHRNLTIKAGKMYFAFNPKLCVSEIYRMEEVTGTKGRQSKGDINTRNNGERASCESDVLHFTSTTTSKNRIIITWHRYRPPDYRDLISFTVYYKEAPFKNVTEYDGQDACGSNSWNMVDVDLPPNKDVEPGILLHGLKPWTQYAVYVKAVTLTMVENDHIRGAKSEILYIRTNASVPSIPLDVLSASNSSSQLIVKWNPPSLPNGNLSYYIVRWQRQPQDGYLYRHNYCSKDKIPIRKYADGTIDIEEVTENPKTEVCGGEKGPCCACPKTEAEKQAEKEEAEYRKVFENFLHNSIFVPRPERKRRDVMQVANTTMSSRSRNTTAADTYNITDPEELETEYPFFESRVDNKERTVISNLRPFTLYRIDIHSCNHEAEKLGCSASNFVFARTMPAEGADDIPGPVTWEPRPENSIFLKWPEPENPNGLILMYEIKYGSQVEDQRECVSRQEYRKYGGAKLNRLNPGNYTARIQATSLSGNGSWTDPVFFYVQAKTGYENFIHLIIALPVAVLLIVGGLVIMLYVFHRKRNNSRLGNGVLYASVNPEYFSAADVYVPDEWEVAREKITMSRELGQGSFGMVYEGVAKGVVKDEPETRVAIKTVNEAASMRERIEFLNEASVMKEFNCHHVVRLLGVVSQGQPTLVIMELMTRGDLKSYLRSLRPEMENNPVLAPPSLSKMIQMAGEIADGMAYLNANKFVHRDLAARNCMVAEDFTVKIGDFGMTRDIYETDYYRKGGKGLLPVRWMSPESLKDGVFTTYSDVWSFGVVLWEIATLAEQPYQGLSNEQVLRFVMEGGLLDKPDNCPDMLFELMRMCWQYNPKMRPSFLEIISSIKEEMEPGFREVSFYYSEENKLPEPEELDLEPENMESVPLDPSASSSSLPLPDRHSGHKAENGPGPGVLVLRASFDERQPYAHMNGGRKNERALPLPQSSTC

Row | Compound | amounts of γ-H2AX (γ-H2AX [1]; [10]) | percentage of γ-H2AX positive cells (γ-H2AX [2]; [11]) | IC50 (IGFR) [nM] | antiproliferative effects and apoptosis [3] | percentage of cleaved-caspase-3 positive cells (cleaved caspase-3 [4]) | amount of cleaved caspase-3 (cleaved caspase-3 [5]) | percentage of pHH3 positive cells ([6]; 24 h) | percentage of pHH3 positive cells ([6]; 48 h) | amounts of γ-H2AX (γ-H2AX [1]; [12]) | percentage of γ-H2AX positive cells (γ-H2AX [2]; [12]) | specificity for PLK1 (PLK1) | phosphorylation of NPM at Threonine 199 (NPM at Threonine 199) | primary dose-limiting toxicities ([7]; phase I dose-escalation) | recovery of hematologic toxicities ([7]; reversible toxicities, phase I) [weeks] | colony-forming capacity (NCI-H1703 cells [8]) | % of cells in G2 and/or mitotic stages (NCI-H1703 cells [9]) | inhibition of cell proliferation (AML cell lines)
1 | COc1cc(CCc2cc(NC(=O)c3ccc(N4C[C@@H](C)N[C@@H](C)C4)cc3)n[nH]2)cc(OC)c1 [AZD4547, N-[5-[2-(3,5-Dimethoxyphenyl)ethyl]-2H-pyrazol-3-yl]-4-(3,5-diemthylpiperazin-1-yl)benzamide] | about the same | about the same | 828 |  |  |  |  |  |  |  |  |  |  |  |  |  | 
2 | CC[C@@H]1C(=O)N(C)c2cnc(Nc3ccc(C(=O)NC4CCN(C)CC4)cc3OC)nc2N1C1CCCC1 [BI2536] |  |  |  | synergistically enhances antiproliferative effects and apoptosis |  |  |  |  |  |  |  |  |  |  |  |  | 
3 | CN1CCN(c2ccc(OC(F)(F)F)c(Nc3ncc4c(n3)-c3c(c(C(N)=O)nn3CCO)CC4)c2)CC1 [onvansertib, 1-(2-hydroxyethyl)-8-{[5-(4-methylpiperazin-1-yl)-2-(trifluoromethoxy)phenyl]amino}-4,5-dihydro-1H-pyrazolo[4,3-h] quinazoline-3-carboxamide] | about the same | about the same |  |  | increased the percentage of cleaved-caspase-3 positive cells | increased the cleaved caspase-3 | increased the percentage of pHH3 positive cells | increased the percentage of pHH3 positive cells to a similar extent | increased the γ-H2AX | increased the percentage of γ-H2AX positive cells | high specificity | Increased phosphorylation of NPM | neutropenia and thrombocytopenia | ≤ 3 | reduced the colony-forming capacity | increased the % of cells in G2 and/or mitotic stages | inhibited cell proliferation at nanomolar concentrations
